These results are taken from PubChem BioAssay AID248 (DTP/NCI, 2004).

The test system of the assay is L1210 leukemia ip in BDF1 mice, survival T/C. Put plainly: NCI In Vivo Anticancer Drug Screen. Data for tumor model L1210 Leukemia (intraperitoneal) in B6D2F1 (BDF1) mice. Particulars: endpoint: mean survival time, higher = longer survival. A digest of the protocol:
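Tumor was transplanted into mice, which were then dosed with test compound or vehicle alone. Survival was recorded for each group, and the treated figure was expressed relative to the control figure.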

The mark [1] stands for this setting: dose: 100.0 mg/kg/injection, schedule: Q01DX009 (ip), vehicle: Klucel (hydroxypropylcellulose) (HPC).
Setting [2] is: dose: 100.0 mg/kg/injection, schedule: Q04DX003 (ip), vehicle: other.
Setting [3] is: dose: 200.0 mg/kg/injection, schedule: Q01DX009 (ip), vehicle: Klucel (hydroxypropylcellulose) (HPC).
The mark [4] stands for this setting: dose: 200.0 mg/kg/injection, schedule: Q04DX003 (ip), vehicle: other.
Where [5] appears, read: dose: 400.0 mg/kg/injection, schedule: Q01DX009 (ip), vehicle: Klucel (hydroxypropylcellulose) (HPC).
Setting [6] is: dose: 400.0 mg/kg/injection, schedule: Q04DX003 (ip), vehicle: other.
[7] abbreviates: dose: 50.0 mg/kg/injection, schedule: Q01DX009 (ip), vehicle: saline.
Setting [8] is: dose: 100.0 mg/kg/injection, schedule: Q01DX009 (ip), vehicle: saline.
The mark [9] stands for this setting: dose: 100.0 mg/kg/injection, schedule: Q04DX003 (ip), vehicle: Klucel (hydroxypropylcellulose) (HPC).
[10] abbreviates: dose: 200.0 mg/kg/injection, schedule: Q04DX003 (ip), vehicle: Klucel (hydroxypropylcellulose) (HPC).
Setting [11] is: dose: 400.0 mg/kg/injection, schedule: Q04DX003 (ip), vehicle: Klucel (hydroxypropylcellulose) (HPC).
[12] abbreviates: dose: 100.0 mg/kg/injection, schedule: Q01DX001 (ip), vehicle: saline.
Where [13] appears, read: dose: 200.0 mg/kg/injection, schedule: Q01DX001 (ip), vehicle: saline.
The mark [14] stands for this setting: dose: 400.0 mg/kg/injection, schedule: Q01DX001 (ip), vehicle: saline.
Setting [15] is: dose: 50.0 mg/kg/injection, schedule: Q01DX001 (ip), vehicle: saline.
Where [16] appears, read: dose: 50.0 mg/kg/injection, schedule: Q01DX009 (ip), vehicle: saline with Tween-80.
The mark [17] stands for this setting: dose: 100.0 mg/kg/injection, schedule: Q01DX009 (ip), vehicle: saline with Tween-80.
Setting [18] is: dose: 100.0 mg/kg/injection, schedule: Q04DX003 (ip), vehicle: saline with Tween-80.
Where [19] appears, read: dose: 200.0 mg/kg/injection, schedule: Q01DX009 (ip), vehicle: saline with Tween-80.
The mark [20] stands for this setting: dose: 200.0 mg/kg/injection, schedule: Q04DX003 (ip), vehicle: saline with Tween-80.
Setting [21] is: dose: 400.0 mg/kg/injection, schedule: Q04DX003 (ip), vehicle: saline with Tween-80.
Setting [22] is: dose: 25.0 mg/kg/injection, schedule: Q01DX009 (ip), vehicle: Klucel (hydroxypropylcellulose) (HPC).
[23] abbreviates: dose: 50.0 mg/kg/injection, schedule: Q01DX009 (ip), vehicle: Klucel (hydroxypropylcellulose) (HPC).
Where [24] appears, read: dose: 100.0 mg/kg/injection, schedule: Q04DX002 (ip), vehicle: Klucel (hydroxypropylcellulose) (HPC).
Setting [25] is: dose: 75.0 mg/kg/injection, schedule: Q01DX001 (ip), vehicle: carboxymethylcellulose (CMC).
Where [26] appears, read: dose: 150.0 mg/kg/injection, schedule: Q01DX001 (ip), vehicle: carboxymethylcellulose (CMC).

Where “and” joins values, the source holds several entries; their conditions need not be identical. Equal values may be shown once. Toxic doses and inconclusive results are not listed.

As for `CSc1ncc2ncn(C3OC(CO)C(O)C3O)c2n1` (stereo unspecified), the T/C is 108 % of control (dose: 100.0 mg/kg/injection, schedule: Q01DX001 (ip), vehicle: carboxymethylcellulose (CMC)); 91 % of control under setting [1]; 110 % of control under setting [2]; 102 % of control (dose: 200.0 mg/kg/injection, schedule: Q01DX001 (ip), vehicle: carboxymethylcellulose (CMC)); 98 % of control under setting [3]; 95 % of control under setting [4]. Also, the T/C runs as follows: (dose: 400.0 mg/kg/injection, schedule: Q01DX001 (ip), vehicle: carboxymethylcellulose (CMC)) 98 % of control; under setting [5], 89 % of control; under setting [6], 100 % of control.

Consider `CCCNC(Cc1ccccc1)c1ccco1` (stereo unspecified), for which the T/C under setting [7] was 104 % of control; the T/C under setting [8] is 110 % of control; the T/C (dose: 100.0 mg/kg/injection, schedule: Q04DX002 (ip), vehicle: saline) is 97 % of control; the T/C (dose: 200.0 mg/kg/injection, schedule: Q04DX002 (ip), vehicle: saline) is 93 % of control.

Regarding `O=C(O)c1ccc([N+](=O)[O-])cc1-n1cccc1`, the T/C runs as follows: under setting [9], 95 % of control; under setting [10], 98 % of control; under setting [11], 88 % of control.

`CC(C)c1ccc(/C=N/NC(=O)c2ccc[n+](C)c2)cc1`: the T/C is 94 % of control (dose: 12.5 mg/kg/injection, schedule: Q01DX009 (ip), vehicle: saline); 98 % of control (dose: 25.0 mg/kg/injection, schedule: Q01DX009 (ip), vehicle: saline); 112 % of control and 91 % of control under setting [7].

Regarding `Cl/C=C/CSc1ccccc1`, the T/C reads like this: under setting [12], 100 % of control; under setting [13], 103 % of control; under setting [14], 100 % of control.

For `O=C(O)/C=C\C(=O)Nc1ccc2c(c1)OCO2`, the T/C reads like this: under setting [1], 98 % of control; under setting [3], 94 % of control; under setting [5], 91 % of control.

As to `O=C1CCCC(=O)NNC(=O)Nc2ccc(cc2)Cc2ccc(cc2)NC(=O)NN1`, the T/C under setting [15] was 104 % of control, the T/C under setting [12] was 90 % of control, the T/C under setting [13] is 93 % of control and the T/C under setting [14] was 93 % of control.

As for `Cc1ccc(S(=O)(=O)OCCN(CCOS(=O)(=O)c2ccc(C)cc2)c2ccc(N=O)cc2)cc1`, the T/C reads like this: under setting [15], 115 % of control; under setting [12], 124 % of control.

With `CCCCC(c1nc2c(c3c1CCCC3)CCCC2)C(O)(C(F)(F)F)C(F)(F)F` (stereo unspecified), the T/C was 102 % of control (dose: 25.0 mg/kg/injection, schedule: Q01DX009 (ip), vehicle: saline with Tween-80); 104 % of control under setting [16]; 93 % of control and 87 % of control under setting [17]; 97 % of control under setting [18]; 89 % of control under setting [19]; 100 % of control under setting [20]. The T/C under setting [21] was 102 % of control.

Consider `NC(=S)N/N=C(\c1ccccc1)c1cccc2ccccc12`, for which the T/C was 91 % of control under setting [22], 91 % of control under setting [23] and 93 % of control under setting [24].

`CCCNC(=O)Oc1ccc(C2CCCCC2)cc1`: the T/C was 100 % of control (dose: 100.0 mg/kg/injection, schedule: Q01DX001 (ip), vehicle: other); 104 % of control and 87 % of control (dose: 100.0 mg/kg/injection, schedule: Q01DX009 (ip), vehicle: other); 110 % of control under setting [24]; 105 % of control and 109 % of control (dose: 100.0 mg/kg/injection, schedule: Q04DX002 (ip), vehicle: other); 100 % of control under setting [2]; 100 % of control (dose: 200.0 mg/kg/injection, schedule: Q01DX001 (ip), vehicle: other). The T/C is 103 % of control and 111 % of control (dose: 200.0 mg/kg/injection, schedule: Q01DX009 (ip), vehicle: other); 100 % of control (dose: 200.0 mg/kg/injection, schedule: Q04DX002 (ip), vehicle: Klucel (hydroxypropylcellulose) (HPC)); 95 % of control and 111 % of control (dose: 200.0 mg/kg/injection, schedule: Q04DX002 (ip), vehicle: other); 102 % of control under setting [4]; 97 % of control (dose: 400.0 mg/kg/injection, schedule: Q01DX001 (ip), vehicle: other); 101 % of control and 112 % of control (dose: 400.0 mg/kg/injection, schedule: Q01DX009 (ip), vehicle: other). In addition, the T/C (dose: 400.0 mg/kg/injection, schedule: Q04DX002 (ip), vehicle: other) is 95 % of control and 107 % of control; the T/C under setting [6] was 104 % of control.

As for `CN(C)N=Nc1ccc2[nH]ncc2c1`, the T/C is 123 % of control (dose: 14.5 mg/kg/injection, schedule: Q01DX009 (ip), vehicle: Klucel (hydroxypropylcellulose) (HPC)); 100 % of control (dose: 16.5 mg/kg/injection, schedule: Q04DX003 (ip), vehicle: Klucel (hydroxypropylcellulose) (HPC)); 114 % of control under setting [22]; 107 % of control (dose: 25.0 mg/kg/injection, schedule: Q04DX003 (ip), vehicle: Klucel (hydroxypropylcellulose) (HPC)); 152 % of control (dose: 33.0 mg/kg/injection, schedule: Q01DX009 (ip), vehicle: Klucel (hydroxypropylcellulose) (HPC)); 117 % of control (dose: 37.5 mg/kg/injection, schedule: Q04DX003 (ip), vehicle: Klucel (hydroxypropylcellulose) (HPC)). For the same compound, the T/C is, setting by setting: under setting [23], 119 % of control; (dose: 100.0 mg/kg/injection, schedule: Q01DX001 (ip), vehicle: Klucel (hydroxypropylcellulose) (HPC)) 111 % of control.

As for `CC1=C(C#N)C2(CCN(C)CC2)C(C#N)=C(C)N1`, the T/C under setting [25] is 105 % of control; the T/C (dose: 75.0 mg/kg/injection, schedule: Q01DX001 (ip), vehicle: saline) was 104 % of control; the T/C under setting [26] was 109 % of control.

On to `O=C1OC(c2ccccc2)=NC1(c1ccccc1)C1(c2ccccc2)N=C(c2ccccc2)OC1=O` (stereo unspecified), for which the T/C is, setting by setting: under setting [18], 88 % of control; under setting [20], 93 % of control; under setting [21], 86 % of control.

Take `OCCN(CC1C(c2ccccc2)C1c1ccccc1)C1CCCCC1` (stereo unspecified): the T/C (dose: 6.25 mg/kg/injection, schedule: Q04DX002 (ip), vehicle: Klucel (hydroxypropylcellulose) (HPC)) was 98 % of control; the T/C (dose: 25.0 mg/kg/injection, schedule: Q04DX002 (ip), vehicle: Klucel (hydroxypropylcellulose) (HPC)) is 90 % of control; the T/C (dose: 50.0 mg/kg/injection, schedule: Q04DX002 (ip), vehicle: Klucel (hydroxypropylcellulose) (HPC)) was 97 % of control; the T/C under setting [24] was 97 % of control.

As to `Oc1cc(CN2CCCC2)c(O)cc1CN1CCCC1`, the T/C is 111 % of control under setting [25] and 105 % of control under setting [26].

Turning to `CN(C)c1ccc(Cc2ccc(N(C)C)nc2)cn1`, the T/C under setting [9] is 110 % of control, the T/C under setting [10] was 102 % of control and the T/C under setting [11] was 100 % of control.

In the case of `CCCCN(C(=O)OCC)P(=O)(OCC)OCC`, the T/C is 95 % of control under setting [8] and 109 % of control (dose: 200.0 mg/kg/injection, schedule: Q01DX009 (ip), vehicle: saline).

For the compound `NC(=S)S/C=C/C(=O)O`, the T/C under setting [16] was 96 % of control; the T/C under setting [17] was 93 % of control; the T/C under setting [18] was 110 % of control; the T/C under setting [19] is 86 % of control; the T/C under setting [20] is 100 % of control; the T/C under setting [21] is 97 % of control.
